Source: article PMC3973950, “Synthesis of 5-arylidine amino-1,3,4-thiadiazol-2-[(N-substituted benzyol)]sulphonamides endowed with potent antioxidants and anticancer activity induces growth inhibition in HEK293, BT474 and NCI-H226 cells” (Medicinal Chemistry Research, 2013)

Assay: Superoxide anion radical scavenging (NBT/NADH/PMS)
Format: biochemical
Settings: Conc. ± SD; standard catechin; read-out: IC50 inhibitory concentration, Superoxide anion
Method: Measurement of superoxide anion scavenging activity of the synthesized compound was taken based on the method described by Nishimiki et al. ([1972]) and slightly modified. […] The reaction mixture was incubated at 25 °C for 5 min, and the absorbance at 560 nm was measured against blank samples. Catechin was used as reference compound. All the experiments were performed in triplicate, and the results were averaged. The percentage of inhibition was determined by comparing the results of control and test samples. The IC50 (nM/mL) value are depicted in Table 1.

IC50: 171 ± 9.1 µM
Compound: Oc1cc(O)c2c(c1)O[C@H](c1ccc(O)c(O)c1)[C@@H](O)C2 [catechin, reference compound]
